Experiment [1] relates to Mast/stem cell growth factor receptor Kit (Homo sapiens), P10721 [V559D]. Kind of experiment: (§1) Selectivity interaction (Kinase panel (Z-LYTE Assay)) EUB0001632a KIT. Conditions: at 10 µM.
Experiment [2] concerns Mast/stem cell growth factor receptor Kit (Homo sapiens), P10721 [V560G]. The experiment is described as §1. Conditions: at 10 µM.
Experiment [3] has as its system Mast/stem cell growth factor receptor Kit (Homo sapiens), P10721 [V559D,V654A]. The description is as §1. Conditions: at 10 µM.
Experiment [4] deals with Mast/stem cell growth factor receptor Kit (Homo sapiens), P10721 [T670I]. Described as §1. Conditions: at 10 µM.
Experiment [5] deals with Mast/stem cell growth factor receptor Kit (Homo sapiens, UniProt P10721). Described as §1. Conditions: at 10 µM.
Experiment [6] concerns the target Ribosomal protein S6 kinase beta-1 (Homo sapiens, UniProt P23443). Kind of experiment: Selectivity interaction (SelectScreen profiling (Invitrogen)) EUB0000607a RPS6KB1. To be noted: at 2 µM.
Experiment [7] concerns the target Eukaryotic translation initiation factor 2-alpha kinase 1 (Homo sapiens) (UniProt Q9BQI3). Kind of experiment: Selectivity interaction (KinomeScan (DiscoverX)) EUB0000229b EIF2AK1. To be noted: at 10 µM.
Experiment [8] addresses T1, Inhibitor of nuclear factor kappa-B kinase subunit epsilon (Homo sapiens) (UniProt Q14164).
T1 sequence (whole entry): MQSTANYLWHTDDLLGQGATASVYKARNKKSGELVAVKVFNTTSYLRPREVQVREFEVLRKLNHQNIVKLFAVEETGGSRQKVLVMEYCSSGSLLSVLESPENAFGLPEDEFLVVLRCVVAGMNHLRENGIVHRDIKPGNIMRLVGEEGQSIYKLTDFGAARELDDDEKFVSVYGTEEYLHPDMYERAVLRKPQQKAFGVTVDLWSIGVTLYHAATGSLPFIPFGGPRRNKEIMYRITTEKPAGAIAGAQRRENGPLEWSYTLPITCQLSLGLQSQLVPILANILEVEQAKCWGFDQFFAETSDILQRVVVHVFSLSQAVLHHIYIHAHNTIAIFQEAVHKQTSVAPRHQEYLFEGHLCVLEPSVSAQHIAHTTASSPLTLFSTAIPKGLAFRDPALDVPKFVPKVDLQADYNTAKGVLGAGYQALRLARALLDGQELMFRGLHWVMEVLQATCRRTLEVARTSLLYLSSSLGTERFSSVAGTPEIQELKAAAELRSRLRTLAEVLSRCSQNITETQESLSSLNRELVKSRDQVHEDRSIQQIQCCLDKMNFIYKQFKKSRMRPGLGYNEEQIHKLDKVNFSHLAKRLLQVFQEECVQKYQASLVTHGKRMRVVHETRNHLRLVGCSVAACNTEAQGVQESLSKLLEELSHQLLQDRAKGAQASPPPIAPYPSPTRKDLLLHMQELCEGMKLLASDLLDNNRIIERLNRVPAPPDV
Kind of experiment: Selectivity interaction (ActivX KiNativ screen (ex vivo kinase selectivity in human PBMCs)) EUB0001619a IKBKE. Type of experiment: cell-based. Conditions: PBMC, at 1 µM.

Experiment [9] concerns the target STE20/SPS1-related proline-alanine-rich protein kinase (Homo sapiens) (UniProt Q9UEW8). Kind of experiment: Selectivity interaction (KinomeScan (DiscoverX)) EUB0001619a STK39. To be noted: at 1 µM.
For a further experiment, the target named is Aurora kinase B (Homo sapiens, UniProt Q96GD4). Kind of experiment: Selectivity interaction (Kinase panel (literature)) EUB0001199aCl AURKB. To be noted: at 1 µM.
Experiment [10] has as its target Neuropeptide Y receptor type 1 (Homo sapiens, UniProt P25929). Kind of experiment: Selectivity interaction (Neuropeptide Y Y1 receptor binding assay, human recombinant ) EUB0000877a NPY1R.
The target of experiment [11] is T2, Discoidin domain-containing receptor 2 (Homo sapiens) (UniProt Q16832).
T2 sequence (whole entry): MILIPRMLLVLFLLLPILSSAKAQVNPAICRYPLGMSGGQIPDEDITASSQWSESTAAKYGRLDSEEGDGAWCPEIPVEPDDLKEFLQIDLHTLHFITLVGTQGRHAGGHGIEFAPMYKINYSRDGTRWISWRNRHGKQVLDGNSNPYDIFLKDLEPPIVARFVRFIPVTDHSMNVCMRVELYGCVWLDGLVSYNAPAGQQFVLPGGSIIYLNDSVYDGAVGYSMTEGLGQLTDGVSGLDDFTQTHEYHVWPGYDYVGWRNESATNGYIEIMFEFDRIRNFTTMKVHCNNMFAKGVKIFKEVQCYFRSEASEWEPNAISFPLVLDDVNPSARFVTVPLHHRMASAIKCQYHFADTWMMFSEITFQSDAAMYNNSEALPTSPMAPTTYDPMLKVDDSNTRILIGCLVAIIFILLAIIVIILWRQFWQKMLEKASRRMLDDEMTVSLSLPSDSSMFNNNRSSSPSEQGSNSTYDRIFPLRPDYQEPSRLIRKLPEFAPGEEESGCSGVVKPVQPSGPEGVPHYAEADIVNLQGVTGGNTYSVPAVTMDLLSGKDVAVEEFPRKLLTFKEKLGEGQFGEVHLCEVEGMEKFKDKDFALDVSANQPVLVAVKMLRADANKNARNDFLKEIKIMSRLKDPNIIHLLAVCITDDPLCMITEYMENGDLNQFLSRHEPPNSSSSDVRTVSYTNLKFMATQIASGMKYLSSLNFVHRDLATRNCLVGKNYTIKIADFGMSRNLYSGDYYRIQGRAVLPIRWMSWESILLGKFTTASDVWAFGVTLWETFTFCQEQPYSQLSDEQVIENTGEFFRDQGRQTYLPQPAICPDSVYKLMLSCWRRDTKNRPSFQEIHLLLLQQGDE
Conditions: at 10 µM.

Experiment [12] concerns the target Death-associated protein kinase 2 (Homo sapiens) (UniProt Q9UIK4). Kind of experiment: Selectivity interaction (ProQinase) EUB0000171b DAPK2.
Experiment [13] has as its target Casein kinase I isoform gamma-2 (Homo sapiens) (UniProt P78368). Kind of experiment: Selectivity interaction (ProQinase) EUB0000171b CSNK1G2.

Death-associated protein kinase 2 (Homo sapiens), sequence (Q9UIK4 whole entry, looked up, canonical isoform): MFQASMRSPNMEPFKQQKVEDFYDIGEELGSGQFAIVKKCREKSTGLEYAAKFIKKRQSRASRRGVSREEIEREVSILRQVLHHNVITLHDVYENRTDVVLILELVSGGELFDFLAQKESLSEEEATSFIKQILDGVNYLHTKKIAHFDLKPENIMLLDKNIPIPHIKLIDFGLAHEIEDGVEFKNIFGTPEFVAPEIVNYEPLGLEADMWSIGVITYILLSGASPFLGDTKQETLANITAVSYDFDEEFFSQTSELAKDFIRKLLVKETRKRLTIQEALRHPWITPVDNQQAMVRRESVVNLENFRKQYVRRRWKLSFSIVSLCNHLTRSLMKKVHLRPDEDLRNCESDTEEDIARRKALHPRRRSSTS
Casein kinase I isoform gamma-2 (Homo sapiens), sequence (P78368 whole entry, looked up, canonical isoform): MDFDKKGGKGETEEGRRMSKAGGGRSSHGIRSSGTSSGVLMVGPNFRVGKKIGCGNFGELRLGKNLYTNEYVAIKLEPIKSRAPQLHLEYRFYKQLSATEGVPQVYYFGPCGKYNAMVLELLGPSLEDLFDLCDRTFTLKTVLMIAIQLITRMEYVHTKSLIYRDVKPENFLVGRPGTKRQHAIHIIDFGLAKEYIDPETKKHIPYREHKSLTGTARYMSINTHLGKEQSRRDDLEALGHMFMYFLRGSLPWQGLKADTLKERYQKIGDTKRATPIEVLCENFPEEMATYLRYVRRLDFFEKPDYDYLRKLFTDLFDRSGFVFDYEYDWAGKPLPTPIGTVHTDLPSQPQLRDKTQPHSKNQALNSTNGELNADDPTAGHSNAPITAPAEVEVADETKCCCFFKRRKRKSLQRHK
Neuropeptide Y receptor type 1, sequence (P25929 whole entry, the tested form may be a part): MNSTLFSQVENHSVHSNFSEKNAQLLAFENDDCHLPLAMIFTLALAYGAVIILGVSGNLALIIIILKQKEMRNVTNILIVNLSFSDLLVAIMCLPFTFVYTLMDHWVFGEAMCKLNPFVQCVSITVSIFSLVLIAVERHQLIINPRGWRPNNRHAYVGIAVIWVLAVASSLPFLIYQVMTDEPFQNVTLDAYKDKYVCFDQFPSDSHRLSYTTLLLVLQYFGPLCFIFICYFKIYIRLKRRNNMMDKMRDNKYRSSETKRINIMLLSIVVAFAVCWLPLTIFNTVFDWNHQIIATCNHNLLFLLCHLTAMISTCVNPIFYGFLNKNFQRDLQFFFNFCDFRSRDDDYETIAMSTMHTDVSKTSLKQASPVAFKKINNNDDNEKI
Mast/stem cell growth factor receptor Kit (Homo sapiens), P10721 [V560G], sequence (P10721 whole entry V560G): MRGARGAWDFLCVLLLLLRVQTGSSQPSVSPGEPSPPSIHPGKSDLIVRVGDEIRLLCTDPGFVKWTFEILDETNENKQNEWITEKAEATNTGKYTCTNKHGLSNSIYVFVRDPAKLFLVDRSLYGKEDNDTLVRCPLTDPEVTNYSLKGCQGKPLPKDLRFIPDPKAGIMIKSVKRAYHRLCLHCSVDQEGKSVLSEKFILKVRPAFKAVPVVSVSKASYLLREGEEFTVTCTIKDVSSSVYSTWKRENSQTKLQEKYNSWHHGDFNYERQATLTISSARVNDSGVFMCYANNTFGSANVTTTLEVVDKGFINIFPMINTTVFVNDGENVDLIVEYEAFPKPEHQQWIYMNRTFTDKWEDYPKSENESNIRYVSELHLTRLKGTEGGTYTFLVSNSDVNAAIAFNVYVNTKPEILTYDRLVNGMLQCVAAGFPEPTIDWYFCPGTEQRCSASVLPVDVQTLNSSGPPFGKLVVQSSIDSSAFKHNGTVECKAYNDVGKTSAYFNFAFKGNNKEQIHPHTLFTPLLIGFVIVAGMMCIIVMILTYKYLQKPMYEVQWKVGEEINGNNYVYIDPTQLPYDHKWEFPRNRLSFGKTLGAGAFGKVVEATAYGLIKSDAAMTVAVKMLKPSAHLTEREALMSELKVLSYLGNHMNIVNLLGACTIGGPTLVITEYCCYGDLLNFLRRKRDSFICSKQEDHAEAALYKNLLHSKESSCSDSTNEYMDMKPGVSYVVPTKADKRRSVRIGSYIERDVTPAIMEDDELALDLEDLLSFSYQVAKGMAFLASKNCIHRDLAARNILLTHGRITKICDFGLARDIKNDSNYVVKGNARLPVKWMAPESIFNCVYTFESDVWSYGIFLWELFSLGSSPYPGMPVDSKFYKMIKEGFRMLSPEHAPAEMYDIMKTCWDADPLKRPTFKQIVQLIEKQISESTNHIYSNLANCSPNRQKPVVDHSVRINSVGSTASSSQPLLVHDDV
Mast/stem cell growth factor receptor Kit (Homo sapiens), P10721 [V559D], sequence (P10721 whole entry V559D): as the sequence (P10721 whole entry V560G) above, with V559D, G560V counted along it
Ribosomal protein S6 kinase beta-1, sequence (P23443 whole entry, looked up): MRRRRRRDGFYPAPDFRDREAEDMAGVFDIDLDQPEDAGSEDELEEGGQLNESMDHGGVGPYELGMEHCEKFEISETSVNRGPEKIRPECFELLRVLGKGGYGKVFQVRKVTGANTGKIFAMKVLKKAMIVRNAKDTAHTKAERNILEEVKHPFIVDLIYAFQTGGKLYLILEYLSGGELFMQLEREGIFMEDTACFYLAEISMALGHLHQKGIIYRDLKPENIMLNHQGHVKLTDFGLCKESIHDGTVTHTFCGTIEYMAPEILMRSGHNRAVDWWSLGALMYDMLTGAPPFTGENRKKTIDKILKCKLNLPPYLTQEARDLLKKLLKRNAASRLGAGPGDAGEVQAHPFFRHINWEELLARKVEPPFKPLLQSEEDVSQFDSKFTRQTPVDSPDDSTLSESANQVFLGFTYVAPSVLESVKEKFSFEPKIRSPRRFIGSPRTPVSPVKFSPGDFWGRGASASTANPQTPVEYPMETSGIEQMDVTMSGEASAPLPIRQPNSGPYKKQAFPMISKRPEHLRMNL
Aurora kinase B, sequence (Q96GD4 whole entry): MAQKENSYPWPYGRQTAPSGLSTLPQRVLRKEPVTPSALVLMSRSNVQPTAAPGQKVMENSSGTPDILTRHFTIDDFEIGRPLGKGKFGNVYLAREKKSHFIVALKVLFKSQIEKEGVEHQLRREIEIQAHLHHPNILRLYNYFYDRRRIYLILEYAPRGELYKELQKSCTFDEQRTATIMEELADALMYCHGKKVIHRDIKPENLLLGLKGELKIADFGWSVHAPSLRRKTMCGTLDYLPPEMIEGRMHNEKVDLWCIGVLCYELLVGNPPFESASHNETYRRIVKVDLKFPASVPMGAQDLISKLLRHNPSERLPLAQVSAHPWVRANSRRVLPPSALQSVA
Eukaryotic translation initiation factor 2-alpha kinase 1 (Homo sapiens), sequence (Q9BQI3 whole entry): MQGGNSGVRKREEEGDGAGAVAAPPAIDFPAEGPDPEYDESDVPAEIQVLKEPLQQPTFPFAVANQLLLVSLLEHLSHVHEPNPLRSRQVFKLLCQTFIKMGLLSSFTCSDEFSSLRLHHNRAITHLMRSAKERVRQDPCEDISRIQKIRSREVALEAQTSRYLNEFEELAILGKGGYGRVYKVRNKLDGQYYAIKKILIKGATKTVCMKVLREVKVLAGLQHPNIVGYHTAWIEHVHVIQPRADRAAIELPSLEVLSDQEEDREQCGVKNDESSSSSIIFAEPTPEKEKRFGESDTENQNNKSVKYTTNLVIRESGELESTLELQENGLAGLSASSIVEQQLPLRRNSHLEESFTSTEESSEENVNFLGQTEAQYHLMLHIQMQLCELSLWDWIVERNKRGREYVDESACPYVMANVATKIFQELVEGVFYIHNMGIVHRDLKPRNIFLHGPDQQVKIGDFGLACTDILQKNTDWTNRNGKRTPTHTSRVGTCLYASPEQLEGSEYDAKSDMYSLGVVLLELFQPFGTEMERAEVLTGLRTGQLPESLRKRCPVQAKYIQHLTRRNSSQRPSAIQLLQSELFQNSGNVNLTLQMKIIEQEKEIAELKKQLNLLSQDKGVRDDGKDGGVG
Mast/stem cell growth factor receptor Kit (Homo sapiens), P10721 [T670I], sequence (P10721 whole entry T670I): as the sequence (P10721 whole entry V560G) above, with G560V, T670I counted along it
Mast/stem cell growth factor receptor Kit, sequence (P10721 whole entry): as the sequence (P10721 whole entry V560G) above, with G560V counted along it
Mast/stem cell growth factor receptor Kit (Homo sapiens), P10721 [V559D,V654A], sequence (P10721 whole entry V559D/V654A): as the sequence (P10721 whole entry V560G) above, with V559D, G560V, V654A counted along it

Consider `Cn1cc(-n2cnc3c(NCc4nc5cc(Cl)c(Cl)cc5[nH]4)nc(N4CCOCC4)nc32)cn1`, for which the % of control in experiment [1] stood at 6.85%; in experiment [2], 1.94%; in experiment [3], 0.874%; in [4], 0.683%; in [5], 7.07%.

As to `CNC(=O)Nc1ccc(-c2nc(N3CC4CCC(C3)O4)c3cnn(C4CCC5(CC4)OCCO5)c3n2)cc1`, the % of inhibition in experiment [6] worked out at 2%.

The compound `COc1cc(N(C)c2ccnc3ccc(C(F)(F)F)cc23)cc(OC)c1OC` had a % binding in experiment [7] of 74%.

In turn, `N#Cc1cccc(-c2c[nH]c3ncnc(N4CCOCC4)c23)c1` gave a % of inhibition in experiment [8] of 19%. This compound also showed a % of control in experiment [9] of 92%.

For the compound `CN1Cc2nccc(-c3cn(C)nc3-c3ccc(F)cc3)c2C1=O`, the % of inhibition at Aurora kinase B is 4%.

For `CCC(=O)N1CC[C@H](Nc2ncnc3c2CN(c2cnc(OC)c(C(F)(F)F)c2)CC3)C1` [LENIOLISIB], the concentration for half-maximal inhibition (IC50) in [10] was > 30 µM.

In experiment [11], `CCN(CC)CCCCNc1ncc2cc(-c3cc(OC)cc(OC)c3)c(NC(=O)NC(C)(C)C)nc2n1` registered a % of control of 100%.

In the case of `C=CC(=O)Nc1cccc(C(=O)Nc2ccc(Nc3cc(-c4[nH]c(SC)nc4C)ccn3)cc2)c1`, the % of control worked out at 92% in experiment [12] (at 1 µM), 78% in [12] (at 5 µM), 22% in [13] (at 1 µM) and 5% in experiment [13] (at 5 µM).

(Values after ChEMBL document CHEMBL5465560, “Selectivity Literature for EUbOPEN Chemogenomic Library” (2024).)
